Measured values from US20110117165A1, “IMPLANTABLE BONE GRAFT MATERIALS” (AFFINERGY, INC., priority 2009, published 2011).
Ends that are not written are not given here. MP = mini-PEG unit; Mpa = O=C(O)CCS

Key:
BMP-6 = molecular target: T1, BMP-6 (Homo sapiens, UniProt P22004); test: Binding of immobilized BMP binding peptides to BMP-6 (ELISA); conditions: BMP at 100 nM and 10 nM
T1 sequence (P22004 375-513): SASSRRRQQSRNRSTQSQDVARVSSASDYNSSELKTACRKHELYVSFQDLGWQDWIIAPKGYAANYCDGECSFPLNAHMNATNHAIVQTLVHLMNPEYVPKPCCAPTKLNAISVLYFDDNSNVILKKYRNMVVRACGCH
Protocol: (§1) BMP binding peptides SEQ ID NOs:1-4 & 8-10 were identified as described in US Patent Application Publication No. US20060051395A1. Briefly, the peptides were identified by phage display using immobilized BMP-2 as a substrate for the phage library selections. Synthetic peptides SEQ ID NOs: 1-2 were determined to bind to BMP-2 with a relative EC50 value of 0.8 nM and 0.9 nM, respectively (data not shown). Separately, the relative binding affinity of peptides SEQ ID NOs: 1-2 for BMP-2 is shown in FIG. 14A (SEQ ID NO: 1 is denoted as P9 and SEQ ID NO: 2 is denoted as P10). Briefly, the results shown in FIG. 14A were generated by immobilizing biotinylated BMP binding peptides SEQ ID NOs:1 & 2 on streptavidin coated plates. Serial dilutions of 200 nM, 20 nM and 2 nM of BMP-2 were incubated with the immobilized BMP binding peptides for 45 minutes, washed, and bound BMP quantified using ELISA.
(§2) BMP binding peptides SEQ ID NOs: 5-7 were identified as described in US Patent Application Publication No. US20090098175A1. Briefly, the peptides were identified by phage display using immobilized GDF-7 (GDF-7 is BMP-12) as a substrate for the phage library selections. […] The data shown in FIG. 14C were collected similarly to that described above for FIGS. 14A-14B except that the serial dilutions of BMP were 100 nM and 10 nM.

GDF-7 (BMP-12) = molecular target: T2, GDF-7 (BMP-12) (Homo sapiens, UniProt Q7Z4P5); test: Binding to GDF-7 (phage display selection substrate)
T2 sequence (Q7Z4P5 322-450): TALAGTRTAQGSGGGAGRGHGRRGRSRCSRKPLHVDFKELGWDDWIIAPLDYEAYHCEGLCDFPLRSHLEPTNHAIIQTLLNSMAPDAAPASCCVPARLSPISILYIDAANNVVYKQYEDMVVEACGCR
Protocol: as §2

BMP-5 = molecular target: T3, BMP-5 (Homo sapiens, UniProt P22003); test: Binding of immobilized BMP binding peptides to BMP-5 (ELISA); conditions: BMP at 100 nM and 10 nM
T3 sequence (P22003 317-454): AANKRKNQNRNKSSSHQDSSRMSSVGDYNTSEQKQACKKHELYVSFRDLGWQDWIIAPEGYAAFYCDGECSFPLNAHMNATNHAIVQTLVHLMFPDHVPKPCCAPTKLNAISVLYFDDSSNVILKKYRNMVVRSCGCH
Protocol: as §1, §2

BMP-7 = molecular target: T4, BMP-7 (Homo sapiens, UniProt P18075); test: Binding of immobilized BMP binding peptides to BMP-7 (ELISA)
T4 sequence (P18075 293-431): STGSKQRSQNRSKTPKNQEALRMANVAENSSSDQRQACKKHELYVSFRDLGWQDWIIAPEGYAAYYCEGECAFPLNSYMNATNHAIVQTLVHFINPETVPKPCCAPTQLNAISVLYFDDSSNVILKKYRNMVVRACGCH

BMP-2 [1] = molecular target: T5, BMP-2 (Homo sapiens, UniProt P12643); test: Binding of immobilized biotinylated BMP binding peptides to BMP-2 (ELISA); conditions: BMP-2 at 200, 20 and 2 nM, 45 minutes
T5 sequence (P12643 283-396): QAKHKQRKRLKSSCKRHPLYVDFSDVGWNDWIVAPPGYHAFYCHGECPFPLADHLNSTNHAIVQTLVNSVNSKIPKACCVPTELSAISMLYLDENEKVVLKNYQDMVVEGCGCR
Protocol: as §1

C2C12 cells = test: Alkaline phosphatase secretion by C2C12 cells in response to BMP-2; format: cell-based; conditions: peptide 0-3500 nM, 3 days
Protocol: In an experiment to test the biological activity of BMP-2 delivered by BMP binding peptide, alkaline phosphatase secreted by C2C12 cells in response to BMP-2 was measured in the presence and absence of BMP binding peptide in solution. C2C12 cells were incubated with BMP-2 (35 nM) and BMP binding peptide at a concentration ranging from 0-3500 nM. The C2C12 cells were incubated with the BMP-2 and BMP binding peptide for 3 days and the alkaline phosphatase assay was performed as described herein above.

BMP-2 [2] = molecular target: T6, BMP-2 (UniProt P12643 283-396); test: collagenase digest of sponge after 24 h in plasma, ELISA; data not shown
T6 construct: also called bone morphogenic protein 2
Protocol: The BMP binding peptide-modified […] collagen sponges generated in Example 2 were evaluated for ability to bind and retain BMP-2. […] The amount of BMP-2 released into the plasma at each time-point was measured by ELISA (QUANTIKINE, R&D SYSTEMS), and the amount retained on the sponge after 24 h was estimated by Western blot analysis. […] After 24 h, the sponges were digested by collagenase, and the amount of BMP-2 retained on the sponges was quantified by ELISA.

BMP-2 [3] = molecular target: T6, BMP-2; test: relative EC50 of peptide on BMP-2; format not described, data not shown
BMP-2 [4] = molecular target: T6, BMP-2; test: relative EC50 of synthetic peptide on BMP-2; format not described, data not shown

Which “binding to BMP-6 (FIG. 14C)” value (BMP-6) does the source give for SSVAEWALRSWEGMRVGEASR [SEQ ID NO: 7] here?
The value was “bind”.

And the “binding to GDF-7” value (GDF-7 (BMP-12))?
Its value is “binding GDF-7”.

What about the “binding to BMP-5 (FIG. 14C)” value (BMP-5) of the same molecule?
Its value is “bind”.

Which “binding to BMP-6 (FIG. 14C)” value (BMP-6) does the source give for SSGPREIWDSLVGVVNPGWSR [SEQ ID NO: 5] here?
The value was “bind”.

What about the “binding to GDF-7” value (GDF-7 (BMP-12)) of the same molecule?
Its value is “binding GDF-7”.

And the “binding to BMP-5 (FIG. 14C)” value (BMP-5)?
The value was “bind”.

Which “binding to BMP-6 (FIG. 14C)” value (BMP-6) does the source give for SSGGVGGWALFETLRGKEVSR [SEQ ID NO: 6] here?
The value was “bind”.

And the “binding to GDF-7” value (GDF-7 (BMP-12))?
Its value is “binding GDF-7”.

And the “binding to BMP-5 (FIG. 14C)” value (BMP-5)?
The value was “bind”.

With GGGAWEAFSSLSGSRV [SEQ ID NO: 1] as the molecule, how does the “relative binding affinity for BMP-7 (FIG. 14B)” value (BMP-7) read?
The value was “high relative affinity”.

What about the “binding to BMP-6 (FIG. 14C)” value (BMP-6) of the same molecule?
The value was “bind”.

And the “relative binding affinity for BMP-2 (FIG. 14A)” value (BMP-2 [1])?
Its value is “high relative affinity”.

And the “binding to BMP-5 (FIG. 14C)” value (BMP-5)?
Its value is “bind”.

“GGALGFPLKGEVVEGWA-NH2 (C-terminus assumed) [SEQ ID NO: 2]” was tested. Which “relative binding affinity for BMP-7 (FIG. 14B)” value (BMP-7) did it give?
The value was “high relative affinity”.

What about the “binding to BMP-6 (FIG. 14C)” value (BMP-6) of the same molecule?
The value was “bind”.

And the “effect on BMP-2 biological activity (alkaline phosphatase secretion)” value (C2C12 cells; BMP-2 35 nM)?
The value was “does not interfere with the biological activity of BMP-2”.

And the “BMP-2 activity of the peptide on its own” value (C2C12 cells)?
The value was “does not have BMP-2 activity on its own”.

And the “relative binding affinity for BMP-2 (FIG. 14A)” value (BMP-2 [1])?
Its value is “high relative affinity”.

What about the “binding to BMP-5 (FIG. 14C)” value (BMP-5) of the same molecule?
The value was “bind”.

B1: BMP binding peptide SEQ ID NO: 1 containing a free thiol group, covalently attached to HELISTAT collagen (peptide)
peptide: GGGAWEAFSSLSGSRV
modifications: also: free thiol group added, position and spacer not given here, attached to collagen through a disulfide
notes: also called Peptide2; Peptide 2
How did the “fold BMP-2 retained against unmodified sponge after 24 h” value (BMP-2 [2]) turn out when B1 was run?
The value was over 40 fold.

B2: BMP binding peptide SEQ ID NO: 5 (peptide)
peptide: SSGPREIWDSLVGVVNPGWSR
modifications: also: biotinylated, position not given here
notes: Found by phage display on immobilized GDF-7; also called P11
How did the EC50 (BMP-2 [3]) turn out when B2 was run?
The EC50 was 2 nM.

B3: BMP binding peptide SEQ ID NO: 7 (peptide)
peptide: SSVAEWALRSWEGMRVGEASR
modifications: also: biotinylated for plate assay, position not given here
notes: Found by phage display on immobilized GDF-7; also called P13
With B3 as the molecule, how does the EC50 (BMP-2 [3]) read?
Its EC50 is 1.1 nM.

B4: BMP binding peptide SEQ ID NO: 2 (peptide)
peptide: GGALGFPLKGEVVEGWA
modifications: also: biotinylated, position not given here
notes: Synthetic peptide found by phage display on immobilized BMP-2; also called P10
How did the EC50 (BMP-2 [4]) turn out when B4 was run?
Its EC50 is 0.9 nM.

B5: BMP binding peptide SEQ ID NO: 6 (peptide)
peptide: SSGGVGGWALFETLRGKEVSR
modifications: also: biotinylated for plate assay, position not given here
notes: Found by phage display on immobilized GDF-7; also called P12
With B5 as the molecule, how does the EC50 (BMP-2 [3]) read?
Its EC50 is 1.8 nM.

{Mpa-MP-MP}-GGALGFPLKGEVVEGWA-NH2 (also: attached to collagen through a disulfide, also called Peptide1) [HS-Propionyl-MP-MP-(SEQ ID NO: 2)-amide, covalently attached to collagen] was tested. Which “fold BMP-2 retained against unmodified sponge after 24 h” value (BMP-2 [2]) did it give?
The value was over 40 fold.

B6: BMP binding peptide SEQ ID NO: 1 (peptide)
peptide: GGGAWEAFSSLSGSRV
modifications: also: biotinylated, position not given here
notes: Synthetic peptide found by phage display on immobilized BMP-2; also called P9
Which EC50 (BMP-2 [4]) does the source give for B6 here?
The EC50 was 0.8 nM.
